Assay type in all cases: cell-based
For test [1], the target named is T1, RhlR (Pseudomonas aeruginosa, UniProt P54292). Nature of the test: RhlR reporter antagonism in E. coli, […] vs […] BHL. Particulars: read-out: E. coli / RhlR ^b / antagonism (%) ^g.
The target of test [2] is T1, RhlR. In words: RhlR reporter antagonism in E. coli, […] vs […] BHL. Particulars: read-out: E. coli / RhlR ^b / antagonism (%) ^g. This is another data set of the same source.
Test [3] addresses T1, RhlR. Nature of the test: RhlR reporter agonism in E. coli at […]. The following applies: 100 µM.

Here are results for three compounds from article PMC4372995 (Journal of the American Chemical Society, 2015).

Read-outs that look alike come from different tables or passages of the source.

T1 sequence (P54292 whole entry): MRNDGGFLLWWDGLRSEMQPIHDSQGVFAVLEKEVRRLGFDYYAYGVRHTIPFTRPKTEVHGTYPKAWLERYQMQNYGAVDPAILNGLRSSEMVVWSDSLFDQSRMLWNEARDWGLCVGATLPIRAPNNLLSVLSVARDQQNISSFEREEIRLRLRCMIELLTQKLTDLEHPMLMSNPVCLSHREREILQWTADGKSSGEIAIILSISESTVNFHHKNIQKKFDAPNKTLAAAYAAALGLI

With `O=C(Cc1ccc(I)cc1)N[C@H]1CCOC1=O` [C10], the inhibition at 100 µM at RhlR [1] was 84%. For the compound `O=C(COc1ccc(I)cc1)N[C@H]1CCOC1=O` [E22], the inhibition at 100 µM at RhlR [2] turned out to be 74%. On to `O=C(CCCOc1cccc(Br)c1)NC1CCSC1=O` (stereo not drawn) [compound 5, mBTL], for which, on RhlR [3], the “PAO1 / pyocyanin inhibition (%)” value is 83 % agonism at 100 µM.
